Legend:
[1] = literature supplemental trials, oral supplementation; cited from earlier work
[2] = Post-chemo restlessness/akathisia in ovarian cancer patient (case report); format: in vivo, human; conditions: Example 05: person, ovarian cancer under chemotherapy
Text: (§1) Person, was diagnosed to have bilateral ovarian cancer in 2005, with ascites and abdominal lymph node metastases. They have undergone surgery and several courses of chemotherapy. […] They are currently under chemotherapy cycles. They tolerated chemotherapy reasonably well but complained of marked fatigue and low energy levels. […] They were given a larger dose of vitamin K2-7 per day. […] They are continued on the dose of vitamin K2-7 for two months.

CEA = CEA levels in ovarian cancer patient (case report); format: in vivo, human; conditions: Example 05: person, under chemotherapy and vitamin K2-7
Text: as §1

[3] = Side effects / adverse effects noted during treatment (case reports); format: in vivo, human
Description: (§2) Their complaints were fatigue, low energy level, muscle cramps and tingling and numbness of lower limbs. […] These returned with drawal and were relieved with re-therapy. […] They were started 350 μg per day of vitamin K2-7 over the two months period.
(§3) Person, healthy otherwise, was having blood pressure on higher side i.e. 130/90 mmHg. They were advised to start taking vitamin K2-7, in a dose of 650 μg, one capsule per day.

[4] = Blood pressure in individual subjects taking vitamin K2-7 (case reports); format: in vivo, human
Description: Person, with hypercholesterolemia (Lipid Profile; 200 mg—Total cholesterol) for which they are taking Atorvastatin 5 mg one per day and 75 mg of Aspirin one per/day since last five years. Underwent angioplasty. They were also having blood pressure which ranges from 136-134/90-88 mmHg. They were taking Telmisartan 40 mg/day from last 4 years for hypertension. Then about 6 months ago they started taking vitamin K2-7 in daily dose of 200 μg. Currently they have stopped taking anti-hypertensive medication from last 1 month. Over a period of 1 and ½ months it is observed that their blood pressure has dropped down to 118-114/78-84 mmHg. Now they are off any anti-hypertensive medicine and continues with vitamin K2-7 only.
(§4) Person was having hypertension (160/114 mmHg) but was not on any medication. They complained of fatigue and low energy level. They were put on 3 capsules per day of 100 μg of vitamin K2-7 for 1 month and then on 2 capsule per day of 350 μg of vitamin K2-7 for the next 2 months under close observation by medical doctor. […] They continued the medicine for next couple of month with same dose i.e. 2 capsules per day of 350 μg of vitamin K2-7. […] Then they were taken off from the treatment for 15 days. Blood pressure shot up to 146/108 mmHg, They were again put on vitamin K2-7, 350 μg, 2 capsules per day and their blood pressure came down to 136/100 mmHg.
as §3

[5] = Fatigue, energy level and exertion endurance in individual subjects (case reports); format: in vivo, human
Description: Person, suffering from general fatigue. They used to go to Gold gym 5-6 times per month. On the treadmill they used to walk at 5 km/hr speed at the start of the exercise and then gradually increase it to 6 km/hr in the next 15 minutes. When they started taking vitamin K2-7 350 μg per day, within 2 weeks of taking vitamin K2-7, they could start at 6 km/hr and go on up to 6.4 km/hr on the treadmill without feeling the strain they felt earlier. […] Their treadmill experience, was now smooth and ‘effortless’.
as §1, §2, §4
Person, was heaving history of Spondylosis, Diabetes mellitus and Hypertension. Five years ago they were operated for cataract (right eye). They are on regular medicine i.e. Atenol50™, one per day, after breakfast, Insulin2™ one per day after lunch, and Diaonil5™, two times a day. They were complaining of fatigue and lack of energy so much so that they found ascending 20 steps at a time difficult with related exhaustion and breathlessness. They were advised to take vitamin K2-7, 350 μg, one cap per day.

[6] = Muscle cramps and neuropathic symptoms of lower limbs (case report); format: in vivo, human; conditions: Example 06: person
Description: as §2

[7] = 500 μg/day, 36-month, older men; cited from earlier work

CN(CC(=O)O)C(=N)N.O [Creatine monohydrate]
effect of supplementation on VO2max / aerobic capacity / exercise performance [1]: did not increase performance

OC[C@H]1O[C@@H](n2cnc3c(O)ncnc32)[C@H](O)[C@@H]1O [Inosine]
effect of supplementation on VO2max / aerobic capacity / exercise performance [1]: no effect on aerobic performance

C[N+](C)(C)C[C@H](O)CC(=O)[O-] [L-carnitine]
effect of supplementation on VO2max / aerobic capacity / exercise performance [1]: unlikely to be associated with the enhanced exercise performance

NC(=O)C1=CN([C@@H]2O[C@H](COP(=O)(O)OP(=O)(O)OC[C@H]3O[C@@H](n4cnc5c(N)ncnc54)[C@H](O)[C@@H]3O)[C@@H](O)[C@H]2O)C=CC1 [NADH, Nicotinamide Adenine Dinucleotide Hydride]
effect of supplementation on VO2max / aerobic capacity / exercise performance [1]: no effects on maximal oxygen uptake VO2max, maximal anaerobic running time or mental performance

CN(CC(=O)O)C(=N)N [creatine]
effect of supplementation on VO2max / aerobic capacity / exercise performance [1]: improves exercise performance

CC(O)C(=O)O (stereo not drawn) [lactate]
effect of supplementation on VO2max / aerobic capacity / exercise performance [1]: unaffected

CC(CN1c2ccccc2Sc2ccccc21)N(C)C (stereo not drawn) [phenergan, reference compound]
post-chemo restlessness/akathisia [2]: relieved

O=C1O[C@H]([C@@H](O)CO)C(O)=C1O [vitamin C]
effect of supplementation on VO2max / aerobic capacity / exercise performance [1]: neither vitamin E nor C, either alone or in combination, enhanced exercise performance

CC(C)=CCC/C(C)=C/CC/C(C)=C/CC/C(C)=C/CC/C(C)=C/CC/C(C)=C/CC/C(C)=C/CC1=C(C)C(=O)c2ccccc2C1=O [vitamin K2-7]
CEA levels (CEA): dropped markedly
side effects ([3]; Example 06: person, 100 then 350 μg/day): no side effects
adverse effects ([3]; Example 08: person, 650 μg/day, 2 months): no adverse effects
blood pressure ([4]; Example 07: 2x350 μg/day restarted after 15 days off treatment (146/108 off treatment)): 136/100
blood pressure ([4]; Example 07: continued 2x350 μg/day for next couple of months): 138/104
blood pressure ([4]; Example 07: person, 3x100 μg/day 1 month then 2x350 μg/day 2 months, baseline 160/114): 140/108
blood pressure ([4]; Example 08: person, 650 μg one capsule/day, 2 months, baseline 130/90): 112/80
general fatigue ([5]; Example 04: person, 350 μg/day): general fatigue had reduced
treadmill starting speed ([5]; Example 04: person, 350 μg/day, within 2 weeks, earlier start 5 km/hr): 6 km/hr
treadmill speed reached ([5]; Example 04: person, 350 μg/day, within 2 weeks, earlier up to 6 km/hr): 6.4 km/hr
fatigue and energy level ([5]; Example 05: person, ovarian cancer under chemotherapy, 100 μg/day): not much relief in fatigue and energy level
fatigue and energy level ([5]; Example 05: person, ovarian cancer under chemotherapy, larger dose, within six weeks): less fatigue and significant improvement in the energy level
fatigue and low energy levels ([5]; Example 06: person, 100 μg/day): only mildly relieved
fatigue and energy level ([5]; Example 06: person, 350 μg/day over two months): significant relief in fatigue and reasonable increases in the energy level
fatigue and energy at work ([5]; Example 07: person, hypertensive, 2x350 μg/day): improvement in fatigue and feels more energetic at work
energy / ability to climb stairs ([5]; Example 09: person, diabetes and hypertension, 350 μg one cap/day, after a month): started feeling more energetic and would walk up the stairs easily without any problem
post-chemo restlessness/akathisia [2]: did not benefit
symptoms of the nerves and muscle (cramps, tingling and numbness of lower limbs) ([6]; 100 μg/day): significantly relieved
cramps and neuropathic symptoms ([6]; 350 μg/day over two months): markedly reduced

phosphate [Oral phosphate]
effect of supplementation on VO2max / aerobic capacity / exercise performance [1]: no improvement in aerobic capacity

vitamin E
effect of supplementation on VO2max / aerobic capacity / exercise performance [1]: neither vitamin E nor C, either alone or in combination, enhanced exercise performance

vitamin K
progression of insulin resistance [7]: reduction in progression of insulin resistance

Source: patent US20120149780A1, “Method of Use of Vitamin K as Energy Enhancer in Diverse Disease States” (priority 2009, published 2012)
